# Reference: paper PMC3592791, “Fluorescence-Based High-Throughput Functional Profiling of Ligand-Gated Ion Channels at the Level of Single Cells” (PLoS ONE, 2013)
# Legend:
# α2β GlyR [1] = molecular target: T1, α2β GlyR (Homo sapiens, UniProt P23416+P48167); assay type: cell-based; conditions: drugs at 10 and 100 µM, Fig. 6A
# T1 construct: expressed in transfected cells; host or cells: HEK293
# Procedure: (§1) plated into 60-mm culture dishes and were transfected when approx. 80% confluent. YFP and GlyR chloride channel subunits were transfected in 1∶1 (YFP and α1-3 GlyR homomers) or 2∶1∶1 ratio (YFP, GlyR α1-3 homo and α1-3β GlyR heteromers) with a total cDNA quantity of 1 µg. Cells were transfected using calcium phosphate precipitation transfection technique, as described in Sambrook et al.. […] We have published a detailed comparison of five transient transfection methods employed routinely in the laboratory for this purpose.
# (§2) The human α1, α2 and α3 GlyR plasmid DNAs were subcloned into the pcDNA3.1 plasmid vector and the human β subunit plasmid DNA was subcloned into pIRES2-EGFP plasmid vector. The UniprotKB accession numbers for the DNAs are as follows (with gene name in brackets): α1 (GLRA1): P23415, α2 (GLRA2): P23416, α3 (GLRA3): O75311 and β(GLRB): P48167.
# (§3) Following termination of transfection, cells were trypsinized by adding 0.7 mL of 0.25% trypsin–EDTA solution (Gibco BRL), resuspended into DMEM, and 2.5×10^3 cells, suspended in 40 µL DMEM, were plated into each well of a transparent 384-well plate for fluorescence imaging experiments. Cells were used in experiments 24 h later. Individual wells typically contained 5×10^3 cells at the time of the experiment. Approximately 1 h prior to commencement of experiments culture media in 384-well plates were removed by turning the plate upside-down onto a stack of tissue and were left for approximately 30 sec until culture media was entirely removed from the wells. The culture media was replaced by 20 µL standard control solution, which contained (in mM) NaCl 140, KCl 5, CaCl2 2, MgCl2 1, HEPES 10, and glucose 10 (pH 7.4) using NaOH. […] For drug screening experiments agonist solutions were supplemented with strychnine (10, 30, 100 µM), picrotoxin (10, 100 µM) and lindane (10, 100 µM) respectively. Drugs were diluted from stocks in agonist solution according to desired final concentrations. […] Experiments were conducted at room temperature (19–22°C).
# (§4) The maximum image acquisition rate was 1.25 Hz. Solutions containing agonist and drug were pipetted into a 384-well plate and placed onto LC PAL sample holder platform. Liquid handling was performed with the autosampler described above. Solutions were applied to cells at a rate of 0.6 ml/min.
# (§5) Images of fluorescent cells were segmented and quantitatively analyzed using a modified version of DetecTIFF® software. In brief, images were segmented using an iterative size and intensity-based thresholding algorithm and the fluorescence signal of identified cells was calculated as the mean of all pixel values within the area of a cell.
# (§6) This VI uses the Levenberg-Marquardt algorithm to determine the set of parameters that best fit the set of input data points (X, Y) as expressed by the nonlinear function: [drawing 1] where a is the set of parameters. The curve model is defined by the following equation: […]
# α3β GlyR [2] = molecular target: T2, α3β GlyR (Homo sapiens, UniProt O75311+P48167); experiment: Whole-cell patch-clamp electrophysiology, α3β GlyR; assay type: cell-based; set-up: expressed in transfected cells; host or cells: HEK293; conditions: read-out: % block of EC50 glycine current; 100 µM lindane, HEK293 cells, -40 mV, 4–7 cells, Fig. 5B
# Procedure: (§7) Cells were transfected as described above and plated onto glass coverslips in 3 cm culture dishes. Coverslips containing cells were placed in a recording chamber on the stage of an inverted fluorescent microscope and currents were recorded using the whole-cell patch-clamp configuration. Cells were perfused by extracellular solution containing (in mM): 140 NaCl, 5 KCl, 2 CaCl2, 1 MgCl2, 10 HEPES/NaOH and 10 glucose (pH 7.4 adjusted with NaOH). Patch pipettes were fabricated from borosilicate hematocrit tubing (Hirschmann Laborgeraete, Eberstadt, Germany) and heat polished. […] After establishment of the whole-cell recording configuration, cells were voltage clamped at −40 mV and membrane currents were recorded using an Axopatch 1D and pClamp 10 software (Molecular Devices). Currents were filtered at 500 Hz and digitized at 2 KHz.
# (§8) Because αsubunits can form functional receptors with or without β subunits, it was necessary to confirm that the expressed receptors incorporated β subunits. As the GlyR β subunit cDNA was cloned into the pIRES2-EGFP plasmid vector, we used green fluorescent protein fluorescence to identify cells transfected with the GlyR β subunit. The successful incorporation of β subunits into functional heteromeric GlyRs was also confirmed pharmacologically by their characteristic reduction in […] sensitivity as described below.
# α3 GlyR [3] = molecular target: T3, α3 GlyR (Homo sapiens, UniProt O75311); experiment: Whole-cell patch-clamp electrophysiology, α3 GlyR; assay type: cell-based; set-up: expressed in transfected cells; host or cells: HEK293; conditions: read-out: % block of EC50 glycine current; 100 µM lindane, HEK293 cells, -40 mV, 4–7 cells, Fig. 5B
# T3 sequence (O75311 34-464): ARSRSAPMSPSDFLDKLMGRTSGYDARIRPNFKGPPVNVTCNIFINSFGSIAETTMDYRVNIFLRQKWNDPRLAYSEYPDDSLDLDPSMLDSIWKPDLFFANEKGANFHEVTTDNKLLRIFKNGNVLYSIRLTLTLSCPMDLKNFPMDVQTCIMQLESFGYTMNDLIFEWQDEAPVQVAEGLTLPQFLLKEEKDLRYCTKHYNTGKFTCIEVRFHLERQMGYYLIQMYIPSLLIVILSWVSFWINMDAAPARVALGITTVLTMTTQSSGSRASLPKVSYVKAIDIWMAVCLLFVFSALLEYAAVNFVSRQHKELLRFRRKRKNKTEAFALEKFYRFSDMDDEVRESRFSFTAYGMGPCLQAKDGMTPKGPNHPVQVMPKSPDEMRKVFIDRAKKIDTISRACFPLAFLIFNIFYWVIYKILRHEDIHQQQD
# Procedure: as §7, §8
# α2β GlyR [4] = molecular target: T1, α2β GlyR; experiment: Whole-cell patch-clamp electrophysiology, α2β GlyR; assay type: cell-based; conditions: read-out: % block of EC50 glycine current; 100 µM lindane, HEK293 cells, -40 mV, 4–7 cells, Fig. 5B
# Procedure: as §7, §8
# α2 GlyR [5] = molecular target: T4, α2 GlyR (Homo sapiens, UniProt P23416); experiment: Whole-cell patch-clamp electrophysiology, α2 GlyR; assay type: cell-based; conditions: read-out: % block of EC50 glycine current; 100 µM lindane, HEK293 cells, -40 mV, 4–7 cells, Fig. 5B
# T4 construct: expressed in transfected cells; host or cells: HEK293
# T4 sequence (P23416 28-452): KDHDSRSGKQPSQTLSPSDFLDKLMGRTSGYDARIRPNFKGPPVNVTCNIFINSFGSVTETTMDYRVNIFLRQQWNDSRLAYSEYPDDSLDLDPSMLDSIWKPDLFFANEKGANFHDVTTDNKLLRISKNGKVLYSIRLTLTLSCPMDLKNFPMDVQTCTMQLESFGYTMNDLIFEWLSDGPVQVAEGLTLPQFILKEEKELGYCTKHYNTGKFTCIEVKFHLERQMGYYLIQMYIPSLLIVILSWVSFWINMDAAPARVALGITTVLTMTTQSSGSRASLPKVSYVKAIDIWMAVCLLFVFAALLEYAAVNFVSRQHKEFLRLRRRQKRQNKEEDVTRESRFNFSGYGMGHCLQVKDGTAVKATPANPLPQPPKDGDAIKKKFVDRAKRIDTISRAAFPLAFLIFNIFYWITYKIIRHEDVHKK
# Procedure: as §7, §8
# α3 GlyR [6] = molecular target: T3, α3 GlyR; conditions: Fig. 3A
# Procedure: plated into 60-mm culture dishes and were transfected when approx. 80% confluent. YFP and GlyR chloride channel subunits were transfected in 1∶1 (YFP and α1-3 GlyR homomers) or 2∶1∶1 ratio (YFP, GlyR α1-3 homo and α1-3β GlyR heteromers) with a total cDNA quantity of 1 µg. Cells were transfected using calcium phosphate precipitation transfection technique, as described in Sambrook et al. [37]. Transfection efficiency varies from 20 to 60%. We routinely achieve a correlation of 80 to 90% between cells expressing YFP and cells expressing GlyRs.
# Following termination of transfection, cells were trypsinized by adding 0.7 mL of 0.25% trypsin–EDTA solution (Gibco BRL), resuspended into DMEM, and 2.5×10^3 cells, suspended in 40 µL DMEM, were plated into each well of a transparent 384-well plate for fluorescence imaging experiments. Cells were used in experiments 24 h later. Individual wells typically contained 5×10^3 cells at the time of the experiment. Approximately 1 h prior to commencement of experiments culture media in 384-well plates were removed by turning the plate upside-down onto a stack of tissue and were left for approximately 30 sec until culture media was entirely removed from the wells. […]
# (§9) Images of fluorescent cells were segmented and quantitatively analyzed using a modified version of DetecTIFF® software [40]. In brief, images were segmented using an iterative size and intensity-based thresholding algorithm and the fluorescence signal of identified cells was calculated as the mean of all pixel values within the area of a cell.
# • Goodness of fit (R^2, ≥0.9), to include curve fits that represent the data points to a high degree. • Dynamic range of fluorescence change (ΔF, 20–100%), to include cells co-expressing both, YFPI152L and GlyRs.
# Filter ranges for enrichment of functional data were determined empirically by biological relevance.
# α1 GlyR = molecular target: T5, α1 GlyR (Homo sapiens, UniProt P23415); assay type: cell-based
# T5 construct: expressed in transfected cells; host or cells: HEK293
# T5 sequence (P23415 29-457): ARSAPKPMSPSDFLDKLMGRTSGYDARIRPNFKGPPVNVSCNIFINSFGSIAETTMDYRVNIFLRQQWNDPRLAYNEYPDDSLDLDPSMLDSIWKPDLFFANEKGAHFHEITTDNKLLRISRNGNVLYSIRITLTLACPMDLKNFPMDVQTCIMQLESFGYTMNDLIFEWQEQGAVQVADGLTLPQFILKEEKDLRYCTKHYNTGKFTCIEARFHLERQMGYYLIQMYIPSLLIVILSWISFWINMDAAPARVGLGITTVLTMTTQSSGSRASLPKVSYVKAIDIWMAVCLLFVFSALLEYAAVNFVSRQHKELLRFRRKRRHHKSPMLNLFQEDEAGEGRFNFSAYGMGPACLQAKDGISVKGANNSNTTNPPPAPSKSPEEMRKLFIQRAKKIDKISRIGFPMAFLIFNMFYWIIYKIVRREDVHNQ
# Procedure: as §1, §2, §3, §4, §5, §6
# α2 GlyR [7] = molecular target: T4, α2 GlyR; assay type: cell-based
# Procedure: as §1, §2, §3, §4, §5, §6
# α3β GlyR [8] = molecular target: T2, α3β GlyR; conditions: read-out: Median half-maximal activation by glycine (EC50), control conditions; no drug, Fig. 4F, n = 122
# Procedure: plated into 60-mm culture dishes and were transfected when approx. 80% confluent. YFP and GlyR chloride channel subunits were transfected in 1∶1 (YFP and α1-3 GlyR homomers) or 2∶1∶1 ratio (YFP, GlyR α1-3 homo and α1-3β GlyR heteromers) with a total cDNA quantity of 1 µg. Cells were transfected using calcium phosphate precipitation transfection technique, as described in Sambrook et al. [37]. Transfection efficiency varies from 20 to 60%. We routinely achieve a correlation of 80 to 90% between cells expressing YFP and cells expressing GlyRs. […]
# Following termination of transfection, cells were trypsinized by adding 0.7 mL of 0.25% trypsin–EDTA solution (Gibco BRL), resuspended into DMEM, and 2.5×10^3 cells, suspended in 40 µL DMEM, were plated into each well of a transparent 384-well plate for fluorescence imaging experiments. […]
# as §9
# • Goodness of fit (R^2, ≥0.9), to include curve fits that represent the data points to a high degree. • Dynamic range of fluorescence change (ΔF, 20–100%), to include cells co-expressing both, YFPI152L and GlyRs. […]
# T1 sequence (P48167 23-497, one chain of several): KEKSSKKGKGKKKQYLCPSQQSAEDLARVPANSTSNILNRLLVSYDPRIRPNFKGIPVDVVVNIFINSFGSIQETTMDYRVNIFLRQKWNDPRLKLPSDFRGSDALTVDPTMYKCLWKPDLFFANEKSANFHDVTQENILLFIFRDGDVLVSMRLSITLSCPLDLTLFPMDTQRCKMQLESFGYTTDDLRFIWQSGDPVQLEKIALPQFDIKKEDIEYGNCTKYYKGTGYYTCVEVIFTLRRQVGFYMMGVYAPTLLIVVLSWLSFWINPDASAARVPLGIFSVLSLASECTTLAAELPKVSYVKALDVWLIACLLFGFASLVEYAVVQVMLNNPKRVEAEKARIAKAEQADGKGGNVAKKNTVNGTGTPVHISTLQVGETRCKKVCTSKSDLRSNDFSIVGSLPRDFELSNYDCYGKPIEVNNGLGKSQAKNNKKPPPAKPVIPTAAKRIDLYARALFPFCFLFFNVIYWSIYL
# T2 sequence (P48167 23-497, one chain of several): as above
compound,measurement,setting,value
O=C1C[C@@H]2OCC=C3CN4CC[C@]56c7ccccc7N1[C@H]5[C@H]2[C@H]3C[C@H]46 [strychnine],Effect on receptor (color map of median glycine EC50),α2β GlyR [1],inhibition
"Cl[C@H]1[C@H](Cl)[C@@H](Cl)[C@@H](Cl)[C@H](Cl)[C@H]1Cl [lindane, γ-hexachlorocyclohexane]",inhibition at 100 µM,α3β GlyR [2],14 ± 3%
same,inhibition at 100 µM,α3 GlyR [3],96 ± 4%
same,inhibition at 100 µM,α2β GlyR [4],23 ± 4%
same,Effect on receptor (color map of median glycine EC50),α2β GlyR [1],no inhibition
same,inhibition at 100 µM,α2 GlyR [5],94 ± 5%
NCC(=O)O [glycine],"Slope value, averaged",α3 GlyR [6]; glycine dose-response,0.91±0.03
same,"Slope values, range over single cells",α3 GlyR [6]; glycine dose-response,0.39–3.43
same,EC50,"α3 GlyR [6]; read-out: Averaged glycine EC50, HEK293 cells, individual well, n = 212 cells",186 ± 17 µM
same,"Slope value, averaged",α1 GlyR,1.19±0.03
same,"Slope values, range over single cells",α1 GlyR,0.47–1.92
same,"Slope value, averaged",α2 GlyR [7],2.92±0.09
same,"Slope values, range over single cells",α2 GlyR [7],0.51–4.73
same,EC50,α3β GlyR [8],46.8 ± 4 µM
picrotoxin,Effect on receptor (color map of median glycine EC50),α2β GlyR [1],no inhibition
same,Effect on receptor (color map of median glycine EC50),"α2 GlyR [7]; drugs at 10 and 100 µM, Fig. 6A",overall less block of homomeric α2 GlyRs by picrotoxin compared to lindane
